Assay results taken from US10259781B2, “Imaging agents” (THE REGENTS OF THE UNIVERSITY OF MICHIGAN, priority 2012, dated 2019).

Columns and labels:
[1] = Human radiation absorbed dose estimates, OLINDA/EXM 1.0, from rat biodistribution
Procedure: (§1) During the development of embodiments of the technology provided herein, the biodistribution of [^18F]4F-MHPG into the organs of rats was assessed. In particular, four time points (Table 3) were collected and used to derive human radiation absorbed dose estimates using the OLINDA/EXM 1.0 software package (see, e.g., Stabin et al. (2005) “OLINDA/EXM; the second-generation personal computer software for internal dose assessment in nuclear medicine”, J Nucl Med. 46: 1023-7). […] These values were entered into the Dynamic Bladder model of OLINDA/EXM, assuming a 4.0-hour void interval. Organs with the highest absorbed dose estimates included the urinary bladder wall (0.666 rad/mCi), […] (0.221 rad/mCi), small intestine (0.201 rad/mCi), and the heart wall (0.201 rad/mCi). An ‘effective dose’ of 0.091 rem/mCi was estimated for [^18F]4F-MHPG. Under United States Federal Regulations governing research with a new radiopharmaceutical (21 CFR § 361.1), the maximum allowable radiation absorbed dose to an individual organ (other than the gonads) is 5 rad. Considering the maximum estimated absorbed dose (urinary bladder wall; 0.666 rad/mCi), initial PET studies in human subjects could use a maximum of 7.5 mCi of [^18F]4F-MHPG. This would correspond to an ‘effective dose’ of 0.68 rem.

Biodistribution in rats = type: in vivo, rat; settings: for Biodistribution, Ovary / Biodistribution, Testes / Biodistribution, Uterus: n = 2
Procedure: During the development of embodiments of the technology, data were collected from bioevaluation studies of [^18F]4F-MHPG. […]
as §1

[2] = 30 minutes after injection, n=5

Compound: N=C(N)NCCc1ccc(F)c(O)c1 [[^18F]4F-MHPG] [4-[^18F]fluoro-meta-hydroxy-phenethylguanidine]
- effective dose for a maximum of 7.5 mCi ([1]; initial PET studies in human subjects, 7.5 mCi): 0.68 rem
- Effective dose ([1]; reference adult male model): 0.091 rem/mCi
- Effective dose, Dose for 10 mCi ([1]; reference adult male model): 0.91 rem
- Radiation absorbed dose estimate, Dose for 10 mCi, Adrenals ([1]; reference adult male model): 0.59 rad
- Radiation absorbed dose estimate, Dose for 10 mCi, Brain ([1]; reference adult male model): 0.25 rad
- Radiation absorbed dose estimate, Dose for 10 mCi, Breasts ([1]; reference adult male model): 0.26 rad
- Radiation absorbed dose estimate, Dose for 10 mCi, Gallbladder wall ([1]; reference adult male model): 0.61 rad
- Radiation absorbed dose estimate, Dose for 10 mCi, Heart wall ([1]; reference adult male model): 1.09 rad
- Radiation absorbed dose estimate, Dose for 10 mCi, Kidneys ([1]; reference adult male model): 0.78 rad
- Radiation absorbed dose estimate, Dose for 10 mCi, LLI wall ([1]; reference adult male model): 1.07 rad
- Radiation absorbed dose estimate, Dose for 10 mCi, Liver ([1]; reference adult male model): 0.96 rad
- Radiation absorbed dose estimate, Dose for 10 mCi, Lungs ([1]; reference adult male model): 0.35 rad
- Radiation absorbed dose estimate, Dose for 10 mCi, Muscle ([1]; reference adult male model): 0.37 rad
- Radiation absorbed dose estimate, Dose for 10 mCi, Osteogenic cells ([1]; reference adult male model): 0.49 rad
- Radiation absorbed dose estimate, Dose for 10 mCi, Ovaries ([1]; reference adult male model): 0.88 rad
- Radiation absorbed dose estimate, Dose for 10 mCi, Pancreas ([1]; reference adult male model): 0.63 rad
- Radiation absorbed dose estimate, Dose for 10 mCi, Red marrow ([1]; reference adult male model): 0.37 rad
- Radiation absorbed dose estimate, Dose for 10 mCi, Skin ([1]; reference adult male model): 0.26 rad
- Radiation absorbed dose estimate, Dose for 10 mCi, Small intestine ([1]; reference adult male model): 2.01 rad
- Radiation absorbed dose estimate, Dose for 10 mCi, Spleen ([1]; reference adult male model): 0.79 rad
- Radiation absorbed dose estimate, Dose for 10 mCi, Stomach wall ([1]; reference adult male model): 0.48 rad
- Radiation absorbed dose estimate, Dose for 10 mCi, Testes ([1]; reference adult male model): 0.41 rad
- Radiation absorbed dose estimate, Dose for 10 mCi, Thymus ([1]; reference adult male model): 0.33 rad
- Radiation absorbed dose estimate, Dose for 10 mCi, Thyroid ([1]; reference adult male model): 0.29 rad
- Radiation absorbed dose estimate, Dose for 10 mCi, Total body ([1]; reference adult male model): 0.41 rad
- Radiation absorbed dose estimate, Dose for 10 mCi, ULI wall ([1]; reference adult male model): 2.21 rad
- Radiation absorbed dose estimate, Dose for 10 mCi, Urinary bladder wall ([1]; reference adult male model): 6.66 rad
- Radiation absorbed dose estimate, Dose for 10 mCi, Uterus ([1]; reference adult male model): 1.03 rad
- Radiation absorbed dose estimate, Total dose, Adrenals ([1]; reference adult male model): 0.059 rad/mCi
- Radiation absorbed dose estimate, Total dose, Brain ([1]; reference adult male model): 0.025 rad/mCi
- Radiation absorbed dose estimate, Total dose, Breasts ([1]; reference adult male model): 0.026 rad/mCi
- Radiation absorbed dose estimate, Total dose, Gallbladder wall ([1]; reference adult male model): 0.061 rad/mCi
- Radiation absorbed dose estimate, Total dose, Heart wall ([1]; reference adult male model): 0.109 rad/mCi
- Radiation absorbed dose estimate, Total dose, Kidneys ([1]; reference adult male model): 0.078 rad/mCi
- Radiation absorbed dose estimate, Total dose, LLI wall ([1]; reference adult male model): 0.107 rad/mCi
- Radiation absorbed dose estimate, Total dose, Liver ([1]; reference adult male model): 0.096 rad/mCi
- Radiation absorbed dose estimate, Total dose, Lungs ([1]; reference adult male model): 0.035 rad/mCi
- Radiation absorbed dose estimate, Total dose, Muscle ([1]; reference adult male model): 0.037 rad/mCi
- Radiation absorbed dose estimate, Total dose, Osteogenic cells ([1]; reference adult male model): 0.049 rad/mCi
- Radiation absorbed dose estimate, Total dose, Ovaries ([1]; reference adult male model): 0.088 rad/mCi
- Radiation absorbed dose estimate, Total dose, Pancreas ([1]; reference adult male model): 0.063 rad/mCi
- Radiation absorbed dose estimate, Total dose, Red marrow ([1]; reference adult male model): 0.037 rad/mCi
- Radiation absorbed dose estimate, Total dose, Skin ([1]; reference adult male model): 0.026 rad/mCi
- Radiation absorbed dose estimate, Total dose, Small intestine ([1]; reference adult male model): 0.201 rad/mCi
- Radiation absorbed dose estimate, Total dose, Spleen ([1]; reference adult male model): 0.079 rad/mCi
- Radiation absorbed dose estimate, Total dose, Stomach wall ([1]; reference adult male model): 0.048 rad/mCi
- Radiation absorbed dose estimate, Total dose, Testes ([1]; reference adult male model): 0.041 rad/mCi
- Radiation absorbed dose estimate, Total dose, Thymus ([1]; reference adult male model): 0.033 rad/mCi
- Radiation absorbed dose estimate, Total dose, Thyroid ([1]; reference adult male model): 0.029 rad/mCi
- Radiation absorbed dose estimate, Total dose, Total body ([1]; reference adult male model): 0.041 rad/mCi
- Radiation absorbed dose estimate, Total dose, ULI wall ([1]; reference adult male model): 0.221 rad/mCi
- Radiation absorbed dose estimate, Total dose, Urinary bladder wall ([1]; reference adult male model): 0.666 rad/mCi
- Radiation absorbed dose estimate, Total dose, Uterus ([1]; reference adult male model): 0.103 rad/mCi
- maximum percentage of the injected dose observed in the gastrointestinal tract (Biodistribution in rats): 12.6%
- Biodistribution, Adrenal (Biodistribution in rats; 5 min): 0.203 ± 0.083 % ID · kg/g
- Biodistribution, Blood (Biodistribution in rats; 5 min): 0.062 ± 0.004 % ID/g
- Biodistribution, Bone (Biodistribution in rats; 5 min): 0.060 ± 0.015 % ID/g
- Biodistribution, Brain (Biodistribution in rats; 5 min): 0.004 ± 0.001 % ID · kg/g
- Biodistribution, Eyeballs (Biodistribution in rats; 5 min): 0.039 ± 0.006 % ID · kg/g
- Biodistribution, Heart (Biodistribution in rats; 5 min): 0.746 ± 0.067 % ID · kg/g
- Biodistribution, Kidney (Biodistribution in rats; 5 min): 1.398 ± 0.530 % ID · kg/g
- Biodistribution, Liver (Biodistribution in rats; 5 min): 0.477 ± 0.110 % ID · kg/g
- Biodistribution, Lung (Biodistribution in rats; 5 min): 0.267 ± 0.045 % ID · kg/g
- Biodistribution, Muscle (Biodistribution in rats; 5 min): 0.019 ± 0.005 % ID/g
- Biodistribution, Pancreas (Biodistribution in rats; 5 min): 0.137 ± 0.024 % ID · kg/g
- Biodistribution, Spleen (Biodistribution in rats; 5 min): 0.268 ± 0.044 % ID · kg/g
- Biodistribution, Stomach (Biodistribution in rats; 5 min): 0.116 ± 0.021 % ID · kg/g
- Biodistribution, Ovary (Biodistribution in rats; 5 min): 0.194 ± 0.048 % ID · kg/g
- Biodistribution, Testes (Biodistribution in rats; 5 min): 0.018 ± 0.002 % ID · kg/g
- Biodistribution, Uterus (Biodistribution in rats; 5 min): 0.268 ± 0.044 % ID · kg/g
- Biodistribution, Adrenal (Biodistribution in rats; 30 min): 0.181 ± 0.069 % ID · kg/g
- Biodistribution, Blood (Biodistribution in rats; 30 min): 0.022 ± 0.003 % ID/g
- Biodistribution, Bone (Biodistribution in rats; 30 min): 0.039 ± 0.015 % ID/g
- Biodistribution, Brain (Biodistribution in rats; 30 min): 0.003 ± 0.000 % ID · kg/g
- Biodistribution, Eyeballs (Biodistribution in rats; 30 min): 0.040 ± 0.004 % ID · kg/g
- Biodistribution, Heart (Biodistribution in rats; 30 min): 0.602 ± 0.111 % ID · kg/g
- Biodistribution, Kidney (Biodistribution in rats; 30 min): 0.183 ± 0.055 % ID · kg/g
- Biodistribution, Liver (Biodistribution in rats; 30 min): 0.406 ± 0.071 % ID · kg/g
- Biodistribution, Lung (Biodistribution in rats; 30 min): 0.136 ± 0.032 % ID · kg/g
- Biodistribution, Muscle (Biodistribution in rats; 30 min): 0.025 ± 0.011 % ID/g
- Biodistribution, Pancreas (Biodistribution in rats; 30 min): 0.145 ± 0.021 % ID · kg/g
- Biodistribution, Spleen (Biodistribution in rats; 30 min): 0.262 ± 0.055 % ID · kg/g
- Biodistribution, Stomach (Biodistribution in rats; 30 min): 0.110 ± 0.004 % ID · kg/g
- Biodistribution, Ovary (Biodistribution in rats; 30 min): 0.171 ± 0.020 % ID · kg/g
- Biodistribution, Testes (Biodistribution in rats; 30 min): 0.010 ± 0.001 % ID · kg/g
- Biodistribution, Uterus (Biodistribution in rats; 30 min): 0.155 ± 0.001 % ID · kg/g
- tissue concentration, adrenal medulla (Biodistribution in rats; [2]): 0.54 ± 0.08 percentage of the injected dose per gram
- tissue concentration, blood (Biodistribution in rats; [2]): 0.07 ± 0.01 percentage of the injected dose per gram
- tissue concentration, left ventricle (Biodistribution in rats; [2]): 1.45 ± 0.13 percentage of the injected dose per gram
- tissue concentration, liver (Biodistribution in rats; [2]): 1.14 ± 0.16 percentage of the injected dose per gram
- tissue concentration, lung (Biodistribution in rats; [2]): 0.43 ± 0.08 percentage of the injected dose per gram
- tissue concentration, muscle (Biodistribution in rats; [2]): 0.07 ± 0.01 percentage of the injected dose per gram
- tissue concentration, spleen (Biodistribution in rats; [2]): 0.56 ± 0.10 percentage of the injected dose per gram
- Biodistribution, Adrenal (Biodistribution in rats; 60 min): 0.193 ± 0.053 % ID · kg/g
- Biodistribution, Blood (Biodistribution in rats; 60 min): 0.016 ± 0.002 % ID/g
- Biodistribution, Bone (Biodistribution in rats; 60 min): 0.027 ± 0.009 % ID/g
- Biodistribution, Brain (Biodistribution in rats; 60 min): 0.002 ± 0.000 % ID · kg/g
- Biodistribution, Eyeballs (Biodistribution in rats; 60 min): 0.041 ± 0.006 % ID · kg/g
- Biodistribution, Heart (Biodistribution in rats; 60 min): 0.526 ± 0.116 % ID · kg/g
- Biodistribution, Kidney (Biodistribution in rats; 60 min): 0.186 ± 0.090 % ID · kg/g
- Biodistribution, Liver (Biodistribution in rats; 60 min): 0.350 ± 0.077 % ID · kg/g
- Biodistribution, Lung (Biodistribution in rats; 60 min): 0.091 ± 0.015 % ID · kg/g
- Biodistribution, Muscle (Biodistribution in rats; 60 min): 0.016 ± 0.002 % ID/g
- Biodistribution, Pancreas (Biodistribution in rats; 60 min): 0.172 ± 0.042 % ID · kg/g
- Biodistribution, Spleen (Biodistribution in rats; 60 min): 0.253 ± 0.054 % ID · kg/g
- Biodistribution, Stomach (Biodistribution in rats; 60 min): 0.115 ± 0.029 % ID · kg/g
- Biodistribution, Ovary (Biodistribution in rats; 60 min): 0.142 ± 0.052 % ID · kg/g
- Biodistribution, Testes (Biodistribution in rats; 60 min): 0.008 ± 0.003 % ID · kg/g
- Biodistribution, Uterus (Biodistribution in rats; 60 min): 0.112 ± 0.046 % ID · kg/g
- Biodistribution, Adrenal (Biodistribution in rats; 120 min): 0.133 ± 0.021 % ID · kg/g
- Biodistribution, Blood (Biodistribution in rats; 120 min): 0.009 ± 0.001 % ID/g
- Biodistribution, Bone (Biodistribution in rats; 120 min): 0.016 ± 0.005 % ID/g
- Biodistribution, Brain (Biodistribution in rats; 120 min): 0.001 ± 0.001 % ID · kg/g
- Biodistribution, Eyeballs (Biodistribution in rats; 120 min): 0.026 ± 0.006 % ID · kg/g
- Biodistribution, Heart (Biodistribution in rats; 120 min): 0.347 ± 0.055 % ID · kg/g
- Biodistribution, Kidney (Biodistribution in rats; 120 min): 0.078 ± 0.024 % ID · kg/g
- Biodistribution, Liver (Biodistribution in rats; 120 min): 0.233 ± 0.049 % ID · kg/g
- Biodistribution, Lung (Biodistribution in rats; 120 min): 0.036 ± 0.006 % ID · kg/g
- Biodistribution, Muscle (Biodistribution in rats; 120 min): 0.015 ± 0.002 % ID/g
- Biodistribution, Pancreas (Biodistribution in rats; 120 min): 0.121 ± 0.016 % ID · kg/g
- Biodistribution, Spleen (Biodistribution in rats; 120 min): 0.235 ± 0.066 % ID · kg/g
- Biodistribution, Stomach (Biodistribution in rats; 120 min): 0.089 ± 0.019 % ID · kg/g
- Biodistribution, Ovary (Biodistribution in rats; 120 min): 0.129 ± 0.029 % ID · kg/g
- Biodistribution, Testes (Biodistribution in rats; 120 min): 0.004 ± 0.001 % ID · kg/g
- Biodistribution, Uterus (Biodistribution in rats; 120 min): 0.081 ± 0.006 % ID · kg/g
